Source: PubChem BioAssay AID652265 (Sanford-Burnham Center for Chemical Genomics, 2013)
Calls of active or inactive are those of the source.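 Rule for the calls: active = compounds whose half-maximal inhibitory concentration in the worm GFP to RFP ratio test is 5 micromolar or lower; inactive = the rest.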

The compounds below were run on C. elegans VP596 Pgst-4::GFP/RFP ratio, acrylamide, 24 h (assay: SKN-1 inhibitor analog confirmation in worms, SAR follow-up, whole organism, GFP/RFP fluorescence ratio, round 2 (AID 652265)).

| IC50 | Compound |
| --- | --- |
| > 64000 nM (inactive) | CCOc1cc(CNC)cc(Cl)c1OCc1ccc(Cl)cc1 |
| 227 nM | CCOc1cc(CNC2CC2)cc(Cl)c1OCc1ccc(Br)cc1 |
| 512 nM | CCOc1cc(CNC2CC2)cc(Cl)c1OCc1ccc(Cl)cc1 |
| 425 nM | CCOc1cc(CNC2CCCC2)cc(Cl)c1OCc1ccc(Br)cc1 |
| 516 nM | CCOc1cc(CNC2CC2)cc(Cl)c1OCc1ccc(Cl)cc1F |
| 1560 nM | CCOc1cc(CNC2CC2)cc(Cl)c1OCc1ccc(C#N)cc1 |
| 863 nM | CCOc1cc(CNC2CCCC2)cc(Cl)c1OCc1ccc(Cl)cc1F |
| 329 nM | COc1cc(CNC2CCCC2)cc(Cl)c1OCc1ccc(Cl)cc1 |
| 6730 nM (inactive) | CCOc1cc(CNCC2CC2)cc(Cl)c1OCc1ccc(Cl)cc1 |

Second part, the compound before the results:

| Compound | IC50 |
| --- | --- |
| CCOc1cc(CN2CCCCC2)cc(Cl)c1OCc1ccc(F)cc1 | 432 nM |
| C#CCNCc1cc(Cl)c(OCc2ccc(Cl)cc2)c(OCC)c1 | 8140 nM (inactive) |
| CCOc1cc(CN(C(C)=O)C2CCCC2)cc(Cl)c1OCc1ccc(Cl)cc1 | > 64000 nM (inactive) |
| CCOc1cc(CN2CCCC2)cc(Cl)c1OCc1ccc(Cl)cc1 | 3960 nM |
| CCOc1cc(CN2CCOCC2)cc(Cl)c1OCc1ccc(Cl)cc1 | 1740 nM |
| CCCNCc1cc(Cl)c(OCc2ccc(Cl)cc2)c(OCC)c1 | 8680 nM (inactive) |
| COc1cc(CNC2CCCC2)cc(F)c1OCc1ccc(Cl)cc1 | 1220 nM |
| C=CCNCc1cc(Cl)c(OCc2ccc(Cl)cc2)c(OCC)c1 | 12300 nM (inactive) |
| CCOc1cc(CN2CCN(C)CC2)cc(Cl)c1OCc1ccc(F)cc1 | 6010 nM (inactive) |
| CCOc1cc(CN2CCOCC2)cc(Cl)c1OCc1ccc(F)cc1 | 8890 nM (inactive) |
| COc1cc(CNC2CCCC2)cc(Br)c1OCc1ccc(Cl)cc1 | 771 nM |
| CCOc1cc(CN2CCN(C)CC2)cc(Cl)c1OCc1ccc(Cl)cc1 | 3420 nM |
| Clc1ccc(COc2c(Cl)cc(CNC3CCCC3)cc2Cl)cc1 | 928 nM |
| CCOc1cc(CN2CCCC2)cc(Cl)c1OCc1ccc(F)cc1 | 21400 nM (inactive) |
| CCOc1cc(CN(C)C2CCCC2)cc(Cl)c1OCc1ccc(Cl)cc1 | 423 nM |
| CCOc1cc(CN2CCCCC2)cc(Cl)c1OCc1ccc(Cl)cc1 | 495 nM |
| CCOc1cc(CNC2CCCC2)cc(Cl)c1OCc1ccc(C#N)cc1 | 400 nM |
| Cc1cc(CNC2CCCC2)cc(C)c1OCc1ccc(Cl)cc1 | 1140 nM |
